Holding throughout (assay type): in vivo
The subject of assay [1] is Solanum nigrum (SOLNI). Kind of assay: Post-emergence biological efficacy, glasshouse pot test. To be noted: 312 h, Rate 1,000 g/ha, post-emergence spray, evaluated after 13 days (100=total damage to plant; 0=no damage to plant), read-out: Percentage damage caused to weed species, post-emergence, SOLNI. In a few lines:
(§1)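 Plants were sown in standard soil and grown 8 days in a glasshouse (24/16° C. day/night, 14 hours light, 65% humidity), then sprayed post-emergence at 1000 or 250 g/ha from acetone/water (50:50) with 0.5% Tween 20. Damage was scored visually after 13 days (0 = none, 100 = total).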

Assay [2] concerns Alopecurus myosuroides (ALOMY). Described as above. To be noted: 312 h, Rate 1,000 g/ha, post-emergence spray, evaluated after 13 days (100=total damage to plant; 0=no damage to plant), read-out: Percentage damage caused to weed species, post-emergence, ALOMY. An outline of the steps:
as §1

Assay [3] relates to Setaria faberi (SETFA). The assay is described as above. Conditions: 312 h, Rate 1,000 g/ha, post-emergence spray, evaluated after 13 days (100=total damage to plant; 0=no damage to plant), read-out: Percentage damage caused to weed species, post-emergence, SETFA. An outline of the steps: as §1
Assay [4] concerns Ipomea hederaceae (IPOHE). The description is as above. Conditions: Ipomoea hederacea, 312 h; Rate 1,000 g/ha; post-emergence spray; evaluated after 13 days (100=total damage to plant; 0=no damage to plant); read-out: Percentage damage caused to weed species, post-emergence, IPOHE. An outline of the steps:
as §1

The test system of assay [5] is Amaranthus retoflexus (AMARE). The assay is described as above. To be noted: Amaranthus retroflexus, 312 h; Rate 1,000 g/ha; post-emergence spray; evaluated after 13 days (100=total damage to plant; 0=no damage to plant); read-out: Percentage damage caused to weed species, post-emergence, AMARE. An outline of the steps: as §1
In assay [6] the test system is Echinochloa crus-galli (ECHCG). The assay is described as above. To be noted: 312 h, Rate 1,000 g/ha, post-emergence spray, evaluated after 13 days (100=total damage to plant; 0=no damage to plant), read-out: Percentage damage caused to weed species, post-emergence, ECHCG. An outline of the steps: as §1
The subject of assay [7] is Solanum nigrum (SOLNI). Put plainly: Pre-emergence biological efficacy, glasshouse pot test. Conditions: 312 h, pre-emergence, rate 1,000 g/ha, evaluated after 13 days (100=total damage to plant; 0=no damage), read-out: Percentage damage caused to weed species, SOLNI. An outline of the steps: (§2)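 Test compound, formulated in acetone/water (50:50) containing 0.5% Tween 20 and diluted into an aqueous spray, was applied at 1000 or 250 g/ha to pots sown one day earlier. Injury was rated after 13 days, 100 meaning total damage.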

The test system of assay [8] is Alopecurus myosuroides (ALOMY). Described as above. To be noted: 312 h, pre-emergence, rate 1,000 g/ha, evaluated after 13 days (100=total damage to plant; 0=no damage), read-out: Percentage damage caused to weed species, ALOMY. An outline of the steps:
as §2

Assay [9] has as its system Setaria faberi (SETFA). The assay is described as above. Conditions: 312 h, pre-emergence, rate 1,000 g/ha, evaluated after 13 days (100=total damage to plant; 0=no damage), read-out: Percentage damage caused to weed species, SETFA. An outline of the steps:
as §2

Assay [10] relates to Ipomea hederaceae (IPOHE). The description is as above. Conditions: Ipomoea hederacea, 312 h; pre-emergence, rate 1,000 g/ha, evaluated after 13 days (100=total damage to plant; 0=no damage); read-out: Percentage damage caused to weed species, IPOHE. An outline of the steps:
as §2

In assay [11] the test system is Amaranthus retoflexus (AMARE). The assay is described as above. To be noted: Amaranthus retroflexus, 312 h; pre-emergence, rate 1,000 g/ha, evaluated after 13 days (100=total damage to plant; 0=no damage); read-out: Percentage damage caused to weed species, AMARE. An outline of the steps:
as §2

Assay [12] relates to Echinochloa crus-galli (ECHCG). Described as above. To be noted: 312 h, pre-emergence, rate 1,000 g/ha, evaluated after 13 days (100=total damage to plant; 0=no damage), read-out: Percentage damage caused to weed species, ECHCG. In a few lines: as §2

Among the data in US20110086759A1, “CHEMICAL COMPOUNDS” (SYNGENTA CROP PROTECTION, INC., priority 2007, published 2011) are pest or weed control values, retold here.

Turning to `COC(=O)c1nc(C2CC2)nc(N(C)Cc2ccc(C(F)(F)F)cc2)c1Cl` [Compound 5-77, 5-Chloro-2-cyclopropyl-6-methoxycarbonyl-4-[N-methyl-N-(4-trifluoromethyl-phenyl)methyl-amino]pyrimidine], the pest or weed control at 1000 g/ha worked out at 100% with Solanum nigrum (SOLNI) [1]; 20% in assay [2]; 50% in the assay on Setaria faberi (SETFA) [3]; 100% in [4]; 100% in assay [5]; 40% in assay [6]. Also, the pest or weed control at 1000 g/ha was determined as 20% with Solanum nigrum (SOLNI) [7]; 0% in assay [8]; 0% in the assay on Setaria faberi (SETFA) [9]; 20% in assay [10]; 90% in assay [11]; 0% in assay [12].

For `COC(=O)c1nc(C2CC2)nc(N(C)Cc2cccc(OC)c2)c1Cl` [Compound 5-79, 5-Chloro-2-cyclopropyl-6-methoxycarbonyl-4-[N-(3-methoxy-phenylmethyl)-N-methyl-amino]-pyrimidine], the pest or weed control at 1000 g/ha with Solanum nigrum (SOLNI) [1] came to 80%; in [2], 0%; with Setaria faberi (SETFA) [3] it was 30%; in assay [4], 70%; in assay [5], 100%; in [6] it was 0%. For the same molecule, the pest or weed control at 1000 g/ha with Solanum nigrum (SOLNI) [7] was 40%; in [8], 0%; with Setaria faberi (SETFA) [9], 0%; in [10], 50%; in assay [11], 70%; in [12], 0%.

In the case of `COC(=O)c1nc(C2CC2)nc(N(C)Cc2ccc(OC)cc2)c1Cl` [Compound 5-80, 5-Chloro-2-cyclopropyl-6-methoxycarbonyl-4-[N-(4-methoxy-phenyl)methyl-N-methyl-amino]-pyrimidine], the pest or weed control at 1000 g/ha with Solanum nigrum (SOLNI) [1] was determined as 100%; in assay [2] it was 20%; with Setaria faberi (SETFA) [3] it was 80%; in assay [4], 100%; in assay [5], 100%; in [6], 50%. The pest or weed control at 1000 g/ha in the assay on Solanum nigrum (SOLNI) [7] was found to be 30%; in [8], 0%; with Setaria faberi (SETFA) [9], 20%; in assay [10], 60%; in [11], 100%; in [12] it was 0%.

`COC(=O)c1nc(C2CC2)nc(N(C)Cc2ccc(N)cc2)c1Cl` [Compound 5-86, 4-[N-(4-aminophenylmethyl)-N-methyl-amino]-5-chloro-2-cyclopropyl-6-methoxycarbonyl-pyrimidine]: the pest or weed control at 1000 g/ha amounted to 90% with Solanum nigrum (SOLNI) [1]; 40% in assay [2]; 90% with Setaria faberi (SETFA) [3]; 100% in assay [4]; 100% in assay [5]; 70% in assay [6]. In addition, the pest or weed control at 1000 g/ha in the assay on Solanum nigrum (SOLNI) [7] turned out to be 100%; in assay [8], 40%; with Setaria faberi (SETFA) [9] it was 30%; in assay [10] it was 100%; in assay [11] it was 100%; in assay [12], 50%.

As to `COC(=O)c1nc(C2CC2)nc(N(C)Cc2ccccc2[N+](=O)[O-])c1Cl` [Compound 5-90, 5-Chloro-2-cyclopropyl-6-methoxycarbonyl-4-[N-methyl-N-(2-nitrophenylmethyl)-amino]pyrimidine], the pest or weed control at 1000 g/ha was 90% with Solanum nigrum (SOLNI) [1]; 50% in [2]; 90% in the assay on Setaria faberi (SETFA) [3]; 100% in assay [4]; 100% in assay [5]; 70% in assay [6]. Besides, the pest or weed control at 1000 g/ha came to 90% in the assay on Solanum nigrum (SOLNI) [7]; 20% in assay [8]; 30% in the assay with Setaria faberi (SETFA) [9]; 90% in assay [10]; 100% in assay [11]; 30% in assay [12].

`COC(=O)c1nc(C2CC2)nc(N(C)Cc2cccc([N+](=O)[O-])c2)c1Cl` [Compound 5-91, 5-Chloro-2-cyclopropyl-6-methoxycarbonyl-4-[N-methyl-N-(3-nitrophenylmethyl)-amino]pyrimidine]: the pest or weed control at 1000 g/ha in the assay on Solanum nigrum (SOLNI) [1] turned out to be 80%; in assay [2] it was 20%; with Setaria faberi (SETFA) [3], 40%; in [4], 80%; in assay [5] it was 100%; in [6], 30%. For the same molecule, the pest or weed control at 1000 g/ha in the assay on Solanum nigrum (SOLNI) [7] was found to be 60%; in assay [8], 10%; in the assay with Setaria faberi (SETFA) [9], 10%; in assay [10] it was 30%; in assay [11], 70%; in [12], 0%.

`COC(=O)c1nc(C2CC2)nc(N(C)Cc2ccc([N+](=O)[O-])cc2)c1Cl` [Compound 5-92, 5-Chloro-2-cyclopropyl-6-methoxycarbonyl-4-[N-methyl-N-(4-nitrophenylmethyl)-amino]-pyrimidine]: the pest or weed control at 1000 g/ha in the assay with Solanum nigrum (SOLNI) [1] was determined as 80%; in [2] it was 50%; with Setaria faberi (SETFA) [3] it was 60%; in assay [4] it was 100%; in assay [5], 100%; in assay [6], 40%. Moreover, the pest or weed control at 1000 g/ha in the assay on Solanum nigrum (SOLNI) [7] is 60%; in assay [8] it was 20%; in the assay with Setaria faberi (SETFA) [9], 10%; in assay [10], 70%; in [11] it was 90%; in assay [12] it was 10%.

Regarding `COC(=O)c1nc(C2CC2)nc(N(C)Cc2c(Cl)cccc2Cl)c1Cl` [Compound 5-104, 5-Chloro-2-cyclopropyl-4-[N-(2,6-dichlorophenyl-methyl)-N-methyl-amino]-6-methoxy-carbonylpyrimidine], the pest or weed control at 1000 g/ha with Solanum nigrum (SOLNI) [1] amounted to 60%; in assay [2] it was 0%; in the assay with Setaria faberi (SETFA) [3] it was 20%; in assay [4], 70%; in [5], 60%; in [6], 0%. In addition, the pest or weed control at 1000 g/ha in the assay with Solanum nigrum (SOLNI) [7] came out at 10%; in [8] it was 0%; with Setaria faberi (SETFA) [9], 0%; in [10] it was 40%; in assay [11] it was 30%; in [12], 0%.
